Measured values: patent US20220117938A1, “COMBINATON THERAPY WITH A DON PRODRUG AND AN IMMUNE CHECKPOINT INHIBITOR” (DRACEN PHARMACEUTICALS, INC., priority 2019, published 2022)

System: CT26.WT tumors
Experiment: Anti-tumor efficacy of Compound 1 by IV and SC routes in the CT26.WT model (Example 8)
Type: in vivo, mice
Procedure: Female BALB/c mice were inoculated subcutaneously in the right flank with CT26.WT cells for tumor development. Six days after tumor inoculation, mice with tumor sizes ranging from 32-77 mm^3 (average tumor size 56 mm^3) were selected and assigned into 6 groups using stratified randomization with 8 mice per group based upon their tumor volumes. The treatments were started from the day of randomization (defined as D0), Group 1 was treated with Vehicle control, q.d.×5 days on (Mon-Fri)×4 cycles s.c.; Group 2 was treated with Compound 1, 0.7 mpk×5 days on (Mon-Fri)×4 cycles s.c.; Group 3 was treated with Compound 1, 1.4 mpk×5 days on (Mon-Fri)×4 cycles s.c.; Group 4 was treated with Compound 1, 4.5 mpk×3-days on (Mon, Wed, Fri)×4 cycles, iv; Group 5 was treated with Compound 1, 7 mpk×2-days on (Mon,Thu)×4 cycles, iv; Group 6 was treated with Compound 1, 14 mpk×1-day on (Mon)×4 cycles, iv. The tumor sizes were measured three times per week during the treatment. The entire study was terminated on D44 after start of the treatment. All treatments were well-tolerated without any adverse effects or significant body weight loss.

[1] = Group 2, 0.7 mpk s.c. Mon-Fri x4 cycles
[2] = Group 2, 0.7 mpk s.c. Mon-Fri x4 cycles, day 16
[3] = Group 3, 1.4 mpk s.c. Mon-Fri x4 cycles
[4] = Group 3, 1.4 mpk s.c. Mon-Fri x4 cycles, day 16
[5] = Group 4, 4.5 mpk iv Mon,Wed,Fri x4 cycles
[6] = Group 4, 4.5 mpk iv Mon,Wed,Fri x4 cycles, day 16
[7] = Group 5, 7 mpk iv Mon,Thu x4 cycles
[8] = Group 5, 7 mpk iv Mon,Thu x4 cycles, day 16
[9] = Group 6, 14 mpk iv Mon x4 cycles
[10] = Group 6, 14 mpk iv Mon x4 cycles, day 16

## CC(=O)N[C@@H](Cc1c[nH]c2ccccc12)C(=O)N[C@@H](CCC(=O)C=[N+]=[N-])C(=O)OC(C)C [Compound 1, Isopropyl (S)-2-((S)-2-acetamido-3-(1H-indol-3-yl)propanamido)-6-diazo-5-oxohexanoate]
[1]
  ILS: 86.1%
  MST: 33.5 days
  RTV at day 16: 4.45 ± 0.74
Group 2, 0.7 mpk s.c. Mon-Fri x4 cycles, day 0
  Tumor volume: 56 ± 4 mm^3
Group 2, 0.7 mpk s.c. Mon-Fri x4 cycles, day 2
  Tumor volume: 62 ± 7 mm^3
Group 2, 0.7 mpk s.c. Mon-Fri x4 cycles, day 4
  Tumor volume: 89 ± 10 mm^3
Group 2, 0.7 mpk s.c. Mon-Fri x4 cycles, day 7
  Tumor volume: 124 ± 20 mm^3
Group 2, 0.7 mpk s.c. Mon-Fri x4 cycles, day 9
  Tumor volume: 140 ± 22 mm^3
Group 2, 0.7 mpk s.c. Mon-Fri x4 cycles, day 11
  Tumor volume: 143 ± 21 mm^3
Group 2, 0.7 mpk s.c. Mon-Fri x4 cycles, day 14
  Tumor volume: 261 ± 45 mm^3
[2]
  T/C: 14.25%
  TGI: 87.81%
  Tumor volume: 259 ± 52 mm^3
Group 2, 0.7 mpk s.c. Mon-Fri x4 cycles, day 18
  Tumor volume: 308 ± 63 mm^3
Group 2, 0.7 mpk s.c. Mon-Fri x4 cycles, day 21
  Tumor volume: 407 ± 83 mm^3
Group 2, 0.7 mpk s.c. Mon-Fri x4 cycles, day 23
  Tumor volume: 522 ± 102 mm^3
Group 2, 0.7 mpk s.c. Mon-Fri x4 cycles, day 25
  Tumor volume: 648 ± 130 mm^3
Group 2, 0.7 mpk s.c. Mon-Fri x4 cycles, day 28
  Tumor volume: 1030 ± 194 mm^3
Group 2, 0.7 mpk s.c. Mon-Fri x4 cycles, day 30
  Tumor volume: 1585 ± 288 mm^3
[3]
  ILS: 86.1%
  MST: 33.5 days
  RTV at day 16: 4.94 ± 0.82
Group 3, 1.4 mpk s.c. Mon-Fri x4 cycles, day 0
  Tumor volume: 56 ± 5 mm^3
Group 3, 1.4 mpk s.c. Mon-Fri x4 cycles, day 2
  Tumor volume: 55 ± 7 mm^3
Group 3, 1.4 mpk s.c. Mon-Fri x4 cycles, day 4
  Tumor volume: 70 ± 8 mm^3
Group 3, 1.4 mpk s.c. Mon-Fri x4 cycles, day 7
  Tumor volume: 107 ± 19 mm^3
Group 3, 1.4 mpk s.c. Mon-Fri x4 cycles, day 9
  Tumor volume: 118 ± 21 mm^3
Group 3, 1.4 mpk s.c. Mon-Fri x4 cycles, day 11
  Tumor volume: 150 ± 26 mm^3
Group 3, 1.4 mpk s.c. Mon-Fri x4 cycles, day 14
  Tumor volume: 235 ± 35 mm^3
[4]
  T/C: 15.82%
  TGI: 86.45%
  Tumor volume: 282 ± 52 mm^3
Group 3, 1.4 mpk s.c. Mon-Fri x4 cycles, day 18
  Tumor volume: 292 ± 49 mm^3
Group 3, 1.4 mpk s.c. Mon-Fri x4 cycles, day 21
  Tumor volume: 406 ± 85 mm^3
Group 3, 1.4 mpk s.c. Mon-Fri x4 cycles, day 23
  Tumor volume: 484 ± 103 mm^3
Group 3, 1.4 mpk s.c. Mon-Fri x4 cycles, day 25
  Tumor volume: 539 ± 119 mm^3
Group 3, 1.4 mpk s.c. Mon-Fri x4 cycles, day 28
  Tumor volume: 853 ± 163 mm^3
Group 3, 1.4 mpk s.c. Mon-Fri x4 cycles, day 30
  Tumor volume: 1372 ± 230 mm^3
[5]
  ILS: 61.1%
  MST: 29 days
  RTV at day 16: 8.92 ± 1.58
Group 4, 4.5 mpk iv Mon,Wed,Fri x4 cycles, day 0
  Tumor volume: 56 ± 3 mm^3
Group 4, 4.5 mpk iv Mon,Wed,Fri x4 cycles, day 2
  Tumor volume: 70 ± 6 mm^3
Group 4, 4.5 mpk iv Mon,Wed,Fri x4 cycles, day 4
  Tumor volume: 92 ± 11 mm^3
Group 4, 4.5 mpk iv Mon,Wed,Fri x4 cycles, day 7
  Tumor volume: 126 ± 16 mm^3
Group 4, 4.5 mpk iv Mon,Wed,Fri x4 cycles, day 9
  Tumor volume: 168 ± 24 mm^3
Group 4, 4.5 mpk iv Mon,Wed,Fri x4 cycles, day 11
  Tumor volume: 223 ± 40 mm^3
Group 4, 4.5 mpk iv Mon,Wed,Fri x4 cycles, day 14
  Tumor volume: 427 ± 73 mm^3
[6]
  T/C: 28.57%
  TGI: 73.09%
  Tumor volume: 503 ± 94 mm^3
Group 4, 4.5 mpk iv Mon,Wed,Fri x4 cycles, day 18
  Tumor volume: 648 ± 148 mm^3
Group 4, 4.5 mpk iv Mon,Wed,Fri x4 cycles, day 21
  Tumor volume: 948 ± 230 mm^3
[7]
  ILS: 61.1%
  MST: 29 days
  RTV at day 16: 7.58 ± 1.97
Group 5, 7 mpk iv Mon,Thu x4 cycles, day 0
  Tumor volume: 56 ± 4 mm^3
Group 5, 7 mpk iv Mon,Thu x4 cycles, day 2
  Tumor volume: 71 ± 9 mm^3
Group 5, 7 mpk iv Mon,Thu x4 cycles, day 4
  Tumor volume: 78 ± 11 mm^3
Group 5, 7 mpk iv Mon,Thu x4 cycles, day 7
  Tumor volume: 142 ± 26 mm^3
Group 5, 7 mpk iv Mon,Thu x4 cycles, day 9
  Tumor volume: 166 ± 37 mm^3
Group 5, 7 mpk iv Mon,Thu x4 cycles, day 11
  Tumor volume: 185 ± 45 mm^3
Group 5, 7 mpk iv Mon,Thu x4 cycles, day 14
  Tumor volume: 395 ± 114 mm^3
[8]
  T/C: 24.28%
  TGI: 76.00%
  Tumor volume: 455 ± 131 mm^3
Group 5, 7 mpk iv Mon,Thu x4 cycles, day 18
  Tumor volume: 518 ± 135 mm^3
Group 5, 7 mpk iv Mon,Thu x4 cycles, day 21
  Tumor volume: 878 ± 272 mm^3
[9]
  ILS: 47.2%
  MST: 26.5 days
  RTV at day 16: 7.02 ± 0.87
Group 6, 14 mpk iv Mon x4 cycles, day 0
  Tumor volume: 56 ± 5 mm^3
Group 6, 14 mpk iv Mon x4 cycles, day 2
  Tumor volume: 69 ± 7 mm^3
Group 6, 14 mpk iv Mon x4 cycles, day 4
  Tumor volume: 78 ± 5 mm^3
Group 6, 14 mpk iv Mon x4 cycles, day 7
  Tumor volume: 163 ± 24 mm^3
Group 6, 14 mpk iv Mon x4 cycles, day 9
  Tumor volume: 160 ± 22 mm^3
Group 6, 14 mpk iv Mon x4 cycles, day 11
  Tumor volume: 204 ± 29 mm^3
Group 6, 14 mpk iv Mon x4 cycles, day 14
  Tumor volume: 425 ± 72 mm^3
[10]
  T/C: 22.49%
  TGI: 78.92%
  Tumor volume: 406 ± 74 mm^3
Group 6, 14 mpk iv Mon x4 cycles, day 18
  Tumor volume: 578 ± 89 mm^3
Group 6, 14 mpk iv Mon x4 cycles, day 21
  Tumor volume: 1035 ± 150 mm^3
Group 6, 14 mpk iv Mon x4 cycles, day 23
  Tumor volume: 1216 ± 177 mm^3
Group 6, 14 mpk iv Mon x4 cycles, day 25
  Tumor volume: 1684 ± 231 mm^3
